{
  "source": "patent US20260234180A1",
  "about": "“AMINO ACID DERIVATIVE, PREPARATION METHOD THEREFOR, AND PHARMACEUTICAL COMPOSITION FOR TREATING HEPATITIS, COMPRISING SAME” (priority 2021, published 2026)",
  "data": [
    {"test_system": "HBV virus", "test": "HBV infection of HepG2-NTCP cells, Southern blot analysis", "type": "cell-based, hepatitis B virus (HBV)", "conditions": "20 μM", "description": "Specifically, the HepG2-NTCP cell line was cultured on a 6-well plate, incubation was performed overnight, HBV inhibitors were treated at a concentration of 20 μM, and the positive control Myrcludex-B (MyrB) was treated at a concentration of 200 nM, followed by culture for 24 hours. After HBV infection into the cells to make HBV 3000 genome equivalent per ml/cell (Geq/cell), the cell culture medium was replaced (medium changing, MC) a day after the viral infection to remove the virus unattached to cell membranes. In order to measure an amount of virus that entered the cell, medium changing (MC) was performed once more 4 days after viral infection. 2 days after replacement, HBeAg ELISA analysis was performed using a supernatant, and Southern blot analysis was performed with cell pellets.\nFirst, the cell pellets were pipetted with 100 μl of HEPES lysis buffer (10 mM HEPES, 100 mM NaCl, 1 mM EDTA, 1% NP-40), placed on ice for 20 minutes, and then centrifuged with a centrifuge under the conditions at 4° C. and 13000 rpm. After transferring the supernatant only to the new microtube, 4.5 μl of nuclease buffer I (10 mM CaCl2), 12 mM MgCl2, DNase 10 units) was added to carry out a reaction at 37° C. for 2 hours, and 40 μl of 26% PEG solution was added, followed by a reaction on ice for 1 hour. After centrifuging with the centrifuge at 4° C. and 13000 rpm for 30 minutes, and the supernatant was removed cleanly. After releasing the pellets with 100 μl of nuclease buffer II (10 mM Tris, 8 mM CaCl2), 6 mM MgCl2), 287.5 μl of 0.5% SDS buffer (25 mM Tris, 10 mM EDTA, 0.5% SDS, 100 mM NaCl) was added, and 12.5 μl of 20 mg/ml proteinase K was added, followed by a reaction at 37° C. for 2 hours. 400 μl of phenol-chloroform-isoamyl alcohol was added, centrifugation was performed at room temperature at 13000 rpm after voltexing, the supernatant was transferred to a new tube, 40 μl of 3 M NaOAc was added, and 800 μl of 100% ethanol was added for inverting, followed by a reaction overnight at −20° C. After performing centrifugation at 4° C. and 13000 rpm for 30 minutes, 800 μl of 70% ethanol was added and mixed to the pellet obtained by removing the supernatant, centrifugation was performed at 4° C. and 13000 rpm for 10 minutes, and then the supernatant was discarded. The ethanol was dried for 5 minutes to leave only the HBV DNA pellets, and then the pellets were dissolved again in 15 μl of TE buffer (10 mM Tris, 1 mM EDTA). HBV DNA samples were loaded in 1% agarose gel, and electrophoresis was performed. It was then immersed in denature buffer (0.25 N NaOH, 1 M NaCl) for 30 minutes to denature dsDNA of HBV into ssDNA. The DNA in the gel was transferred to a Nylon membrane using a transfer buffer (0.4 M NaOH), the membrane was soaked with a 2×SSC buffer (sigma, cat #85639) for neutralization, followed by drying in air. The membrane was immersed in a church buffer (10% BSA, 0.5 M EDTA, 1 M NaPi, 20% SDS), and the radioisotopes were hybridized using a Mega prime kit (GE healthcare, RPN1607). After washing three times with washing buffer (2×SSC, 0.1% SDS), measurement was performed using radioisotope measurement equipment, and a relative replication rate (%) to the negative control group (Mock) was calculated and shown.", "values": [
      {"smiles": "CC[C@@H](C)[C@H](NC(=O)CC[C@@H](C)[C@H]1CC[C@H]2[C@@H]3CC[C@@H]4C[C@H](O)CC[C@]4(C)[C@H]3C[C@H](O)[C@]12C)C(=O)O", "note": "[Example 10, (2S,3R)-2-((R)-4-((3R,5R,8R,9S,10S,12S,13R,14S,17R)-3,12-dihydroxy-10,13-dimethyl-hexadecahydro-1H-cyclopenta[a]phenanthren-17-yl)pentanamido)-3-methylpentanoic acid]", "amount of HBeAg DNA detected compared to the negative control group (Mock)": "relatively less amount"},
      {"smiles": "CC(C)[C@H](NC(=O)CC[C@@H](C)[C@H]1CC[C@H]2[C@@H]3[C@@H](O)C[C@@H]4C[C@H](O)CC[C@]4(C)[C@H]3CC[C@]12C)C(=O)O", "note": "[Example 3, (S)-2-((R)-4-((3R,5S,7S,8R,9S,10S,13R,14S,17R)-3,7-dihydroxy-10,13-dimethyl-hexadecahydro-1H-cyclopenta[a]phenanthren-17-yl)pentanamido)-3-methylbutanoic acid]", "amount of HBeAg DNA detected compared to the negative control group (Mock)": "relatively less amount"},
      {"smiles": "CC[C@@H](C)[C@H](NC(=O)CC[C@@H](C)[C@H]1CC[C@H]2[C@@H]3[C@@H](O)C[C@@H]4C[C@H](O)CC[C@]4(C)[C@H]3CC[C@]12C)C(=O)O", "note": "[Example 2, (2S,3R)-2-((R)-4-((3R,5S,7S,8R,9S,10S,13R,14S,17R)-3,7-dihydroxy-10,13-dimethyl-hexadecahydro-1H-cyclopenta[a]phenanthren-17-yl)pentanamido)-3-methylpentanoic acid]", "amount of HBeAg DNA detected compared to the negative control group (Mock)": "relatively less amount"},
      {"smiles": "CC(C)[C@H](NC(=O)CC[C@@H](C)[C@H]1CC[C@H]2[C@@H]3CC[C@@H]4C[C@H](O)CC[C@]4(C)[C@H]3CC[C@]12C)C(=O)O", "note": "[Example 44, (S)-2-((R)-4-((3R,5R,8R,9S,10S,13R,14S,17R)-3-hydroxy-10,13-dimethyl-hexadecahydro-1H-cyclopenta[a]phenanthren-17-yl)pentanamido)-3-methylbutanoic acid]", "amount of HBeAg DNA detected compared to the negative control group (Mock)": "relatively less amount"},
      {"smiles": "CC[C@@H](C)[C@H](NC(=O)CC[C@@H](C)[C@H]1CC[C@H]2[C@@H]3CC[C@@H]4C[C@H](O)CC[C@]4(C)[C@H]3CC[C@]12C)C(=O)O", "note": "[Example 1, (2S,3R)-2-((R)-4-((3R,5R,8R,9S,10S,13R,14S,17R)-3-hydroxy-10,13-dimethyl-hexadecahydro-1H-cyclopenta[a]phenanthren-17-yl)pentanamido)-3-methylpentanoic acid]", "amount of HBeAg DNA detected compared to the negative control group (Mock)": "relatively less amount"}
    ]}
  ]
}
